Key:
[1] = system: human osteosarcoma cells (MG-63); experiment: Assessment of cytotoxicity by SRB assay; type: cell-based; conditions: MG-63 cells, 0.01 μM to 100 μM for 72 h
Procedure: (§1) The human prostate cancer cells (PC3) and human osteosarcoma cells (MG-63) were obtained from Nawah Scientific Inc. (Mokatam, Cairo, Egypt) and cultured in DMEM (Dulbecco's modified eagle's medium), Gibco, USA, supplemented with fetal bovine serum (FBS) at a concentration of 10% and 100 U/mL of penicillin and streptomycin (PS). The Cells were incubated at 37° C. in a humidified environment that contained 5% CO2.
(§2) Cells were seeded in 96-well plates as aliquots of 100 μL cell suspension and incubated in a complete media for 24 h. afterward, cells were treated with 3-(2-(6-Methoxypyridin-3-yl)-4,5-diphenyl-1H-imidazol-1-yl)-N,N-dimethylpropan-1-amine at diverse concentrations ranging from 0.01 μM to 100 μM for 72 h. Then, cells were fixed at 4° C. for one hour with 150 μL of 10% trichloroacetic acid (TCA). After washing the cells five times with distilled water, 70 μL of sulforhodamine (SRB) solution (0.4% w/v) was added and incubated for 10 min at room temperature in a dark place. […] Then, 150 μL of Tris pH 10.5 (10 mM) was added, and the absorbance was measured at 540 nm using a BMG LABTECH®- FLUOstar Omega microplate reader (Ortenberg, Germany). Half maximal inhibitory concentrations (IC50) values were calculated for each experiment using GraphPad Prism 6 software. […]
(§3) The inhibition was calculated using the following equation: Inhibition %=100-Average Viability

[2] = system: human prostate cancer cells (PC3); experiment: Assessment of cytotoxicity by SRB assay; type: cell-based; conditions: 0.01 μM to 100 μM for 72 h
Procedure: as §1, §2, §3

melting point: 125 to 127 °C
Structure (SMILES): COc1ccc(-c2nc(-c3ccccc3)c(-c3ccccc3)n2CCCN(C)C)cn1 [3-(2-(6-Methoxypyridin-3-yl)-4,5-diphenyl-1H-imidazol-1-yl)-N,N-dimethylpropan-1-amine]
antiproliferative activities [1]: excellent antiproliferative activities
antiproliferative activities [2]: excellent antiproliferative activities
